Data taken from patent publication US20110144125A1, “Anti-Arrhythmia Agents, Methods of Their Use, Methods of Their Identification and Kits Therefore” (THE UAB RESEARCH FOUNDATION, priority 2008, published 2011).

Test system: rat left atrial appendage
Assay: 2-APB-induced spontaneous mechanical activity (SMA/SMEs) in isolated superfused rat left atria / left atrial appendage
Conditions: for concentration at which SMA is reduced (reversal): recorded ˜10 min after addition; for time to reversal of SMA after exposure: 20 μM 2-APB-induced SMA; for prevention of electromechanical instability in model of abnormal automaticity (FIG. 6): polyphenol then 2-APB; for effect on sporadic ectopic activity (SMA): 2-APB-treated appendages, known anti-arrhythmic agents, lidocaine data not shown
Method: Left atria were isolated from male Sprague-Dawley rats (325 to 400 g) under IP pentobarbital anesthesia (0.1 g/kg). Isolated left atria were superfused at 30° C. in Krebs-Henseleit (KH) buffer of the following mM composition: NaCl, 118; NaHCO3, 27; KCl, 4.8; MgSO4, 1.2; KH2PO4, 1.0; CaCl2, 1.8; and glucose, 11.1. Nearly isometric left atrial forces of contraction were measured as described.
Isolated superfused left atria were paced at 3 Hz. 2-APB was added to atrial superfusates from 0.015 or 0.15M DMSO stock solutions to achieve concentrations of 0, 2, 7.5, 15, or 22 μM (n=5 to 10 atria per concentration). Changes in atrial mechanical force were recorded during a subsequent 15 min superfusion.
Two groups of 5 to 6, 3 Hz paced atria were superfused in KH and exposed to 0 or 15 μM 2-APB for 10 min. The pacing stimulus was interrupted for 5 min and the number of spontaneous mechanical events (SMEs), defined as increases in mechanical force occurring in the absence of pacing, were measured as was the postrest potentiation response (PRP).
To determine whether diastolic interval affected the interaction between 2-APB and left atria, atrial pacing was decreased to 0.1 Hz, and 0, 7.5, or 22 μM 2-APB was added to the superfusate (n=6-8 per group). Superfusions continued for 15 min, and changes in atrial mechanical function were observed.
To establish whether SMA was reversible, atria (n=7) were paced at 0.1 Hz, exposed to 15 μM 2-APB for 10 min, and washed with KH. The effect of removing 2-APB on atrial mechanical function was recorded.
To test whether an anion transport inhibitor affected SMA, atria (n=7) were paced at 0.1 Hz in KH and exposed to 15 μM 2-APB. Following the appearance of SMA, they were titrated with 100 to 400 μM DIDS for 3 to 5 min at each concentration. Whether SMA occurred at the end of each titration period was recorded.
Left atria (n=10 per group) were paced at 0.1 Hz and treated with (i) 20 μM 2-APB for 10 min, (ii) with 30 nM isoproterenol for 5 min followed by 20 μM 2-APB for 10 min, and (iii) with 3 μM forskolin for 5 min followed by 20 μM 2-APB for 10 min.
The appendages then were titrated with increasing concentrations of 2-APB, and SMA was measured and recorded.
To determine the anti-arrhythmic activity of gossypol, isolated rat left atrial appendage and right ventricular muscle strips were used as model systems, as described above. Heart muscle was exposed to 20 μM 2-APB for 10 min to induce SMA, and rates of SMA were recorded as a percentage of initial SMA. The muscles then were titrated with up to 5 increasing concentrations of gossypol. Rates of SMA were recorded ˜10 min after the addition of concentration of the polyphenol.
To determine whether EGCG can prevent arrhythmia, rat left atrial appendages (n=9) were exposed to 20 μM 2-APB and rates of SMA were recorded. Groups of muscles (n=6 per) were pre-treated with 30 μM EGCG for 10 min following which they were exposed to 2-APB. Rates of SMA were recorded 10 min later.
To determine whether EGCG is effective to reverse arrhythmia, isolated rat left atrial appendage and right ventricular muscle strips were used as model systems, as described above. Rat left atrial appendages were exposed to 20 μM 2-APB for 10 min to induce SMA, and rates of SMA were recorded as a percentage of initial SMA. The left atrial appendages then were titrated with up to 5 increasing concentrations of the following polyphenols: EGCG, gossypol, resveratrol, and quercetin. Rates of SMA were recorded ˜10 min after the addition of concentration of the polyphenol.
To determine whether EGC can prevent arrhythmia, left atrial appendages (n=9) were exposed to 20 μM 2-APB and rates of SMA were recorded. Groups of appendages (n=6 per) were pre-treated with 30 μM EGC for 10 min following which they were exposed to 2-APB.

[1] = 20 μM 2-APB for 10 min, then titration
[2] = pre-treated with 30 μM for 10 min, then 20 μM 2-APB for 10 min

## O=C(O[C@H]1Cc2c(O)cc(O)cc2O[C@H]1c1cc(O)c(O)c(O)c1)c1cc(O)c(O)c(O)c1 [EGCG, (−)-cis-2-(3,4,5-Trihydroxyphenyl)-3,4-dihydro-1(2H)-benzopyran-3,5,7-triol 3-gallate]
[1]
  concentration at which SMA is reduced (reversal): ≥ 20 µM
20 μM 2-APB, unpaced, 40 μM EGCG added to the muscle bath
  reversal of SMA: SMA ceased
  time to reversal of SMA after exposure: ≤ 10 min
  prevention of electromechanical instability in model of abnormal automaticity (FIG. 6): prevent the electromechanical instability
[2]
  SMEs after pre-treatment (prevention of SMA): no SMEs

## O=c1c(O)c(-c2ccc(O)c(O)c2)oc2cc(O)cc(O)c12 [quercetin, 2-(3,4-dihydroxyphenyl)-3,5,7-trihydroxy-4H-chromen-4-one]
  prevention of electromechanical instability in model of abnormal automaticity (FIG. 6): prevent the electromechanical instability
[2]
  SMEs after pre-treatment (prevention of SMA): no SMEs

## CCN(CC)CC(=O)Nc1c(C)cccc1C [lidocaine]
  effect on sporadic ectopic activity (SMA): suppress this arrhythmic activity

## Oc1ccc(C=Cc2cc(O)cc(O)c2)cc1 [resveratrol, 5-[2-(4-hydroxyphenyl)ethenyl]benzene-1,3-diol]
  prevention of electromechanical instability in model of abnormal automaticity (FIG. 6): prevent the electromechanical instability
[2]
  SMEs after pre-treatment (prevention of SMA): no SMEs

## Oc1cc(O)c2c(c1)O[C@@H](c1cc(O)c(O)c(O)c1)[C@@H](O)C2 [EGC, (−)-cis-2-(3,4,5-trihydroxyphenyl)-3,4-dihydro-1(2H)-benzopyran-3,5,7-triol]
  prevention of electromechanical instability in model of abnormal automaticity (FIG. 6): prevent the electromechanical instability
[2]
  SMEs after pre-treatment (prevention of SMA): no SMEs

## 2-methoxy antimycin A [2MAA]
pre-treated with 80 μM 2MAA, 15 μM 2-APB
  SMEs in 2MAA-treated appendages: none

## Cc1cc2c(C(C)C)c(O)c(O)c(C=O)c2c(O)c1-c1c(C)cc2c(C(C)C)c(O)c(O)c(C=O)c2c1O [gossypol, 7-(8-formyl-1,6,7-trihydroxy-3-methyl-5-propan-2-ylnaphthalen-2-yl)-2,3,8-trihydroxy-6-methyl-4-propan-2-ylnaphthalene-1-carbaldehyde]
[1]
  concentration at which SMA dropped to zero (reversal): ≥ 20 µM
  concentration at which SMA is reduced (reversal): ≥ 10 µM
  time to reversal of SMA after exposure: ≤ 10 min
  prevention of electromechanical instability in model of abnormal automaticity (FIG. 6): prevent the electromechanical instability

## O=C(NCC1CCCCN1)c1cc(OCC(F)(F)F)ccc1OCC(F)(F)F (stereo not drawn) [flecainide]
  effect on sporadic ectopic activity (SMA): suppress this arrhythmic activity
Listed as Flecainide
  effect on sporadic ectopic activity (SMA): suppresses SMA

## CCOC(=O)C1=C(N)Oc2ccc(Br)cc2C1C(C#N)C(=O)OCC (stereo not drawn) [HA14-1, ethyl 2-amino-6-bromo-4-(1-cyano-2-ethoxy-2-oxoethyl)-4H-chromene-3-carboxylate]
HA14-1 added 10 min after exposure to 2-APB
  effect on SMA when added after 2-APB (reversal): no effect on SMA
pre-treated with 30 μM HA14-1, 2-APB 15 μM and above, vs untreated appendages
  SMEs after pre-treatment (prevention of SMA): significantly fewer SMEs
